Key:
[1] = Modified Reb D solubility in water; type: physicochemical
[2] = co-crystallization of quercetin with caffeine, mass ratio 2:1; cited from earlier work
[3] = co-crystallization of quercetin with caffeine, mass ratio 2:1; cited from earlier work; remark: listed apart in the source

| Solubility (23° C.) (ppm) ([1]; in water, 23° C.) | solubility of the Reb D after spray drying the clear Reb D solution to a fine powder ([1]; spray dried without enhancer or stabilizer) | solubility in water ([1]; water at 23° C. / room temperature, untreated Reb D or powders as worded) | maximum solubility in heated water ([1]; water heated above 70° C., typically 80 to 100° C.) | SMILES | bioavailability increase [2] | solubility increase [3] |
| --- | --- | --- | --- | --- | --- | --- |
| 350 ppm | 1500 ppm | 300 ppm | 2.5 wt % | C=C1C[C@@]23CC[C@H]4[C@@](C)(CCC[C@@]4(C)C(=O)O[C@@H]4O[C@H](CO)[C@@H](O)[C@H](O)[C@H]4O[C@@H]4O[C@H](CO)[C@@H](O)[C@H](O)[C@H]4O)[C@@H]2CC[C@]1(O[C@@H]1O[C@H](CO)[C@@H](O)[C@H](O[C@@H]2O[C@H](CO)[C@@H](O)[C@H](O)[C@H]2O)[C@H]1O[C@@H]1O[C@H](CO)[C@@H](O)[C@H](O)[C@H]1O)C3 [Control, Rebaudioside D] |  |  |
|  |  |  |  | O=c1c(O)c(-c2ccc(O)c(O)c2)oc2cc(O)cc(O)c12 [quercetin] | 10 fold | 14 fold |
